Measured values taken from patent US20100087547A1, “Use of a Blood-Flow Decrease Preventing Agent in Conjunction With Insufflating Gas” (priority 2001, published 2010).

Tests used:
[1] = test system: blood-flow in liver; test: Liver blood-flow by laser Doppler flow method in anesthetized pigs during and after carbon dioxide insufflation (Example I); assay type: in vivo; settings: adult pigs
Description: Ten adult pigs were anesthetized at time zero using halothane anesthetic. A small cut was made in the abdomen to allow access inside the peritoneum. In the case of one group of five pigs, denoted group A, an insufflating needle was inserted, and starting at time 1 hour and 48 minutes, an insufflating gas consisting of carbon dioxide was delivered into the abdominal cavity to standard operating pressure (of 15 mm Hg) and the insufflating gas was maintained in the abdominal cavity for 1 hour whereupon the insufflating gas was removed by suction. In the case of another group of five pigs, denoted group B, an insufflating needle was inserted, and starting at time 1 hour and 35 minutes, an insufflating gas consisting of carbon dioxide and 100 ppm ethyl nitrite was delivered to the abdominal cavity to standard operating pressure and the insufflating gas was maintained in the abdominal cavity for about 1⅕ hour whereupon the insufflating gas was removed by suction. In both cases, blood-flow in liver was monitored by a laser Doppler flow method (a standard method where […] are projected at flowing blood and bounce back) whereby blood-flow is determined starting at time 5 minutes after time zero in the case of group A, and starting at about time 20 minutes after time zero in the case of group B and continuing until 2 hours after insufflating gas was removed. In FIGS. 1 and 2, the Doppler Flow Units are arbitrary units. In FIG. 3, the term “Relative Flow” means relative blood-flow in liver compared to baseline. […] FIG. 1 illustrates that carbon dioxide pneumoperitoneum produces a decrease in blood-flow to the liver, which was sustained even after the procedure was completed.

[2] = test system: fetal PO2; test: Fetal PO2 during laparoscopic evaluation of a pregnant female (Example II); assay type: in vivo, human; settings: 32 weeks pregnant female, 100 ppm added to carbon dioxide insufflating gas; fetal PO2 before addition 7 mmHg, electrode on the head
Description: A person, 32 weeks pregnant, undergoes laparoscopic evaluation for right lower quadrant pain. Thirty minutes into the procedure, fetal PO2, measured by an electrode placed on the head, is 7 mmHg. 100 ppm ethyl nitrite is added to the carbon dioxide insufflating gas, and the fetal PO2 increases to 25 mm Hg.

[3] = test system: renal perfusion; test: Laparoscopy in a person with renal artery stenosis, renal perfusion (Example IV); assay type: in vivo, human; settings: 100 ppm added to insufflating gas
Description: A person with renal artery stenosis undergoes laparoscopy appendectomy and diagnostic evaluation of a renal mass.

[4] = test system: abdominal pain suggestive of intestinal ischemia; test: Laparoscopic cholecystectomy, abdominal pain suggestive of intestinal ischemia (Example III); assay type: in vivo, human; settings: person, 100 ppm added to the insufflating gas one hour into the procedure
Description: A person undergoes laparoscopic cholecystectomy.

[5] = test system: blood pressure, pulmonary and renal functions; test: Laparoscopic appendectomy, agent nebulized into the abdominal cavity (Example V); assay type: in vivo, human; settings: person, 3 cc of 100 micromolar nebulized into the abdominal cavity
Description: A person undergoes laparoscopic appendectomy. Because of concerns of impaired renal function, pulmonary function and hypertension, nitroglycerin (3 cc of 100 micromolar) is nebulized into the abdominal cavity. Blood pressure increases are prevented and pulmonary and renal functions are kept stable.

| Structure (SMILES) | more blood-flow in liver than with carbon dioxide only, 2 hours post-insufflation (FIG. 3) ([1]; 100 ppm ethyl nitrite in carbon dioxide, 2 hours after insufflating gas is removed) | more blood-flow in liver than with carbon dioxide only, during insufflation (FIG. 3) ([1]; 100 ppm ethyl nitrite in carbon dioxide, average values while insufflating gas is present) | effect on carbon dioxide induced decline in liver perfusion (FIG. 2) ([1]; group B, carbon dioxide with 100 ppm ethyl nitrite, 15 mm Hg, laser Doppler flow) | fetal PO2 after addition of agent [2] [mm Hg] | decrease in blood-flow (renal perfusion) [3] | abdominal pain [4] | blood pressure increases [5] | pulmonary function [5] | renal function [5] |
| --- | --- | --- | --- | --- | --- | --- | --- | --- | --- |
| CCON=O [ethyl nitrite] | about 40% | about 70% | protects against carbon dioxide induced decline in liver perfusion | 25 | protects against decrease in blood-flow | resolution of abdominal pain |  |  |  |
| O=[N+]([O-])OCC(CO[N+](=O)[O-])O[N+](=O)[O-] [nitroglycerin] |  |  |  |  |  |  | prevented | kept stable | kept stable |
